Source: patent publication US8669378B2, “Process for synthesizing epicconone analogs” (Universite de Rouen, priority 2009, dated 2014)

Tests used:
[1] = Fluorescence of the adducts with butylamine in acetonitrile; format: physicochemical; design: Δ Stokes: unit not given here; conditions: Bioconjugated molecule (BuNH2) in CH3CN
Method: (§1) Apparatus: • Acetonitrile: VWR HPLC quality • Micropipette: 5 μl, 10 μl, 200 μl, 1000 μl, • Eppendorf: Safe lock tube PCR • UV cuvette: Varian-Quartz 10 mm thick • Fluorescence cuvette: Hellma-Quartz 10 mm thick • Vortex: Bender & Hobein-Genie 2 • Centrifuge: Baky Bug • Absorbance spectrophotometer: Varian-Cary 50 scan • Fluorescence spectrophotometer: Varian-Cary Eclipse • Thermostated bath: Varian-Cary single cell peltier accessory Stock Solution:
(§2) Approximately exactly 1 to 2 mg of compound Ia-Io are weighed out in a 1.5 mL Eppendorf tube. The stock solutions are then prepared by adding exactly 1 mL of acetonitrile and the Eppendorf tubes are then stored protected from light.
Two protocols were implemented for the fluorescence tests. • For compounds Ii-Ik: 125 μL of the preceding solution (absorbance solution) are diluted to 1.25 mL by adding 1125 μl of acetonitrile to a fluorescence cuvette. The analysis is then performed on the fluorescence spectrophotometer by excitation at the respective maximum-absorption wavelengths. • For compounds Ia-Ih and Il-Io: 1250 μl of the preceding solution (absorbance) are placed in a fluorescence cuvette. The analysis is then performed on the fluorescence spectrophotometer by excitation at the respective maximum-absorption wavelengths.

[2] = Photobleaching of stained standard proteins in gel under UV transilluminator; format: physicochemical; conditions: protein-stained gel, first-order exponential decay fit, deduced from FIG. 1
Method: The compounds were dissolved at 10 mg/mL in DMSO. The stock solutions obtained were diluted to 1 mg/mL in water and divided into 100 μL aliquots for storage. All the products and aliquots were stored at −80° C.
Standard proteins (SDS labeling kit-low molecular weight sold by GE, 17-0446-01) were diluted in an LDS buffer (250 μL Invitrogen 4×LDS buffer, 100 μL of 1 M DDT, 650 μL of water) to create serial dilutions ranging from 128 ng/STI band to 125 pg/STI band.
5 μL of each protein solution were loaded onto NuPAGE® Novex® 12% bis-tris gels (1.0 mm thick, 12 wells, Invitrogen NP0342BOX). The gels were subjected to a current of 150 V for approximately 65 minutes using MES buffer (50 mM MES, 50 mM tris, 1 mM EDTA, 0.1% SDS, pH 7.3) so that the buffer front arrives just up to the gel. After eluting the dye, the gels were fixed for 1 to 17 hours (100 mL of fixing solution with 15% EtOH (v/v) and 1% citric acid) in individual lanes. The fixing solution used was replaced with fresh solution one hour after staining. The gels were stained for 1 hour in 50 mL of sodium borate buffer at 100 mM (pH 10.9) containing either […] of LavaPurple gel dye (Fluorotechnics; LP-011005) or one of the test compounds (50 μL for a 1 mg/mL solution). The gels were treated with 100 mL of 15% ethanol and then washed with 100 mL of fixing solution for 30 minutes.
Imaging was performed using a Typhoon Trio imager (excitation: 532 nm, emission filter: 610BP30, 540 PMT, resolution: 100 μm) using a normal sensitivity. The recorded image corresponds to the scan at time zero. The gels were then placed in a UV transilluminator for 60, 146, 240, 330, 630 and 990 seconds (total exposure time), a Typhoon scanner image being recorded between each exposure. The volumes of the bands were analyzed using the Image-Quant TL software, and all the band volumes were normalized with phosphorylase B. The photobleaching was analyzed by graphically representing the band volumes as a function of the exposure time (GraphPad Prism v4 software) and by fitting the curve to a first-order exponential decay to determine a pseudofirst-order rate constant.
FIG. 1 represents the decrease of the normalized residual signal of compounds (Ii), (Ij), (Ik), (In) and (Io) according to the invention and of epicocconone.
From this FIGURE, the half-life times of the compounds may be deduced: […]

[3] = Absorbance of the adducts with butylamine in acetonitrile; format: physicochemical; conditions: Bioconjugated molecule (BuNH2) in CH3CN
Method: as §1, §2
30 μl of stock solution are placed in a 1.5 mL Eppendorf tube. At room temperature, 10 μl (or 30 μl in the case of Ik) of a 0.15 M solution of butylamine/acetonitrile are added and the medium is stirred by vortex and then centrifuged. After diluting to 1 mL by adding 960 μl of acetonitrile (or 940 μl in the case of Ik), the clear solution is transferred into a UV cuvette and then made up to 2 mL with acetonitrile. The analysis is then performed after producing a “blank” spectrum with a pure acetonitrile solution.

[4] = water and lipid bilayers; cited from earlier work
[5] = cited from earlier work

C/C=C/C=C/C=C/C(=O)/C=C(\O)C1=C2C=C3C[C@@H](CO)OC=C3C(=O)[C@@]2(C)OC1=O [epicocconone, 5,6-dihydro-3-[(1Z,4E,6E,8E)-1-hydroxy-3-oxo-1,4,6,8-decatetraenyl]-6-hydroxymethyl-9a-methyl-2H-furo[3,2g][2]benzopyran-2,9-(9aH)-dione, reference compound]
Δ Stokes ([1]; emission minus excitation wavelength): 95
λ fluo (λ excitation) (nm) ([1]; excitation at maximum-absorption wavelength): 610 nm
Intensity normalized to 50 μM ([1]; fluorescence intensity): 3950
Half-life time [2]: 11.3 min
λ UV (nm), second maximum ([3]; longer-wavelength absorption maximum, used for excitation): 515 nm
λ UV (nm), first maximum ([3]; shorter-wavelength absorption maximum): 388 nm
solubility [4]: good solubility both in water and in lipid bilayers
fluorescence emission wavelength of enamine adduct ([5]; adduct with amine functions, UV-Vis radiation, for example at 395 nm or 520 nm): about 600 nm
Stokes shift ([5]; difference between absorption and emission wavelength): about 100 nm
